Among the data in US6410585B1, “Inhibitors of protein tyrosine phosphatase” (priority 1997, dated 2002) are Ki and melting point values, retold here.

In one data set the target is T1, rat PTP1 (Rattus norvegicus, UniProt P20417).
T1 construct: a C-terminal truncation of rat PTP1 (amino acid residues 1-322); GST (N, cleaved yes); made in house; host or cells: E. coli strain TG-1 (pGEX-2T)
T1 sequence (P20417 1-322): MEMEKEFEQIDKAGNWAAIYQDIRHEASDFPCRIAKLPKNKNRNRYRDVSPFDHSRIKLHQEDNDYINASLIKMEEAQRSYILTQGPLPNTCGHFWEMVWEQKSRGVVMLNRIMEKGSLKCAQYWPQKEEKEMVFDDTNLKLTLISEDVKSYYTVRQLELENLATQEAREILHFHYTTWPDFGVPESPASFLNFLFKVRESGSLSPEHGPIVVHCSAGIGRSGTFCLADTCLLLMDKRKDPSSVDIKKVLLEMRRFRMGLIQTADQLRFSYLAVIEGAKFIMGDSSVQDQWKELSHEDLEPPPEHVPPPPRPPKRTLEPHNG
Description: PTP1 assay, pNPP hydrolysis (rate of change in A405). The following applies: calculated from IC50-values obtained from a dose-response curve using the inhibition assay. In kind it is biochemical. An outline of the steps:
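Thrombin-cleaved rat PTP1 residues 1-322 (35 ng/ml) with 1 mM pNPP in 50 mM Hepes pH 7.2, NaCl, EDTA, DTT, BSA at room temperature. A405 rate followed 60 min. Compounds added as 10 mM solutions; percent inhibition relative to plate DMSO controls, 1 mM orthovanadate as full-inhibition control.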

One may read the Ki as the dissociation constant of the complex between target and ligand, obtained from inhibition or displacement. A word on the melting point: it is the temperature, or range, at which the solid turns liquid. `O=C(O)COc1ccc(C[C@H](NC(=O)c2ccoc2)C(=O)NCCCCc2ccccc2)cc1-c1nn[nH]n1` [Example 147, 2-[4-{(2S)-2-(3-furoylamino)-3-oxo-3-[(4-phenylbutyl)amino]-propyl}-2-(2H-1,2,3,4-tetrazol-5-yl)phenoxy]acetic Acid] had a melting point of 230 to 233 °C. In addition, the Ki at rat PTP1 was 46 µM.
As for `CCCCCNC(=O)[C@@H](Cc1ccc(OCC(=O)O)c(C(=O)O)c1)NC(=O)Cc1ccccc1OC` [Example 153, 2-(carboxymethoxy)-5-[(2R)-2-{[2-(2-methoxyphenyl)acetyl]amino}-3-oxo-3-(pentylamino)propyl]benzoic Acid], the melting point is 146 to 148 °C. In addition, the inhibition constant (Ki) at rat PTP1 was 30 µM.
Molecule `O=C(O)COc1ccc(C[C@H](NC(=O)c2ccccc2)C(=O)NCCCCc2ccccc2)cc1-c1nn[nH]n1` [Example 146, 2-[4-{(2S)-2-(benzoylamino)-3-oxo-3-[(4-phenylbutyl)amino]-propyl}-2-(2H-1,2,3,4-tetrazol-5-yl)phenoxy]acetic Acid] displayed a melting point of 223 to 225 °C. For the same molecule, the Ki at rat PTP1 is 20 µM.
